Measured values: paper PMC9856672, “SGC-CAMKK2-1: A Chemical Probe for CAMKK2” (Cells, 2023)

What was measured:
[1] = target: T1, EGFR(L747-S752del, P753S) (Homo sapiens, UniProt P00533, DEL747-752/P753S); experiment: KINOMEscan 1 μM, EGFR(L747-S752del, P753S); assay type: binding; conditions: 1000 nM; Entrez EGFR; read-out: Percent Control
T1 construct: purchased Eurofins DiscoverX KINOMEscan
From the text: (§1) Supplement cells-12-00287-s001.zip/File S2. KinomeScan data for the CAMKK2 probe and negative control.xlsx, sheet "SGC-CAMKK2-1" | column: Percent Control

FLT3 = target: T2, FLT3 (Homo sapiens, UniProt P36888); experiment: KINOMEscan 1 μM, FLT3; assay type: binding; conditions: 1000 nM; Entrez FLT3; read-out: Percent Control
T2 construct: purchased Eurofins DiscoverX KINOMEscan
From the text: as §1

CSNK1A1L = target: T3, CSNK1A1L (Homo sapiens, UniProt Q8N752); experiment: KINOMEscan 1 μM, CSNK1A1L; assay type: binding; conditions: 1000 nM; Entrez CSNK1A1L; read-out: Percent Control
T3 construct: purchased Eurofins DiscoverX KINOMEscan
From the text: as §1

ABL1-nonphosphorylated = target: T4, ABL1-nonphosphorylated (Homo sapiens, UniProt P00519); experiment: KINOMEscan 1 μM, ABL1-nonphosphorylated; assay type: binding; conditions: 1000 nM; Entrez ABL1; read-out: Percent Control
T4 construct: purchased Eurofins DiscoverX KINOMEscan
From the text: as §1

PCTK3 = target: T5, PCTK3 (Homo sapiens, UniProt Q07002); experiment: KINOMEscan 1 μM, PCTK3; assay type: binding; conditions: 1000 nM; Entrez CDK18; read-out: Percent Control
T5 construct: purchased Eurofins DiscoverX KINOMEscan
From the text: as §1

[2] = target: T6, ABL1(T315I)-nonphosphorylated (Homo sapiens, UniProt P00519, T315I); experiment: KINOMEscan 1 μM, ABL1(T315I)-nonphosphorylated; assay type: binding; conditions: 1000 nM; Entrez ABL1; read-out: Percent Control
T6 construct: purchased Eurofins DiscoverX KINOMEscan
From the text: as §1

ARK5 = target: T7, ARK5 (Homo sapiens, UniProt O60285); experiment: KINOMEscan 1 μM, ARK5; assay type: binding; conditions: 1000 nM; Entrez NUAK1; read-out: Percent Control
T7 construct: purchased Eurofins DiscoverX KINOMEscan
From the text: as §1

CDK4 = target: T8, CDK4 (Homo sapiens, UniProt P11802); experiment: KINOMEscan 1 μM, CDK4; assay type: binding; conditions: 1000 nM; Entrez CDK4; read-out: Percent Control
T8 construct: purchased Eurofins DiscoverX KINOMEscan
From the text: as §1

CDK4-cyclinD1 = target: T9, CDK4-cyclinD1 (Homo sapiens, UniProt P11802); experiment: KINOMEscan 1 μM, CDK4-cyclinD1; assay type: binding; conditions: 1000 nM; Entrez CDK4; read-out: Percent Control
T9 construct: purchased Eurofins DiscoverX KINOMEscan
From the text: as §1

DAPK3 = target: T10, DAPK3 (Homo sapiens, UniProt O43293); experiment: KINOMEscan 1 μM, DAPK3; assay type: binding; conditions: 1000 nM; Entrez DAPK3; read-out: Percent Control
T10 construct: purchased Eurofins DiscoverX KINOMEscan
From the text: as §1

DYRK1A = target: T11, DYRK1A (Homo sapiens, UniProt Q13627); experiment: KINOMEscan 1 μM, DYRK1A; assay type: binding; conditions: 1000 nM; Entrez DYRK1A; read-out: Percent Control
T11 construct: purchased Eurofins DiscoverX KINOMEscan
From the text: as §1

ITK = target: T12, ITK (Homo sapiens, UniProt Q08881); experiment: KINOMEscan 1 μM, ITK; assay type: binding; conditions: 1000 nM; Entrez ITK; read-out: Percent Control
T12 construct: purchased Eurofins DiscoverX KINOMEscan
From the text: as §1

[3] = target: T13, JAK3(JH1domain-catalytic) (Homo sapiens, UniProt P52333); experiment: KINOMEscan 1 μM, JAK3(JH1domain-catalytic); assay type: binding; conditions: 1000 nM; Entrez JAK3; read-out: Percent Control
T13 construct: JAK3(JH1domain-catalytic); purchased Eurofins DiscoverX KINOMEscan
From the text: as §1

KIT(V559D,V654A) = target: T14, KIT(V559D,V654A) (Homo sapiens, UniProt P10721, V559D/V654A); experiment: KINOMEscan 1 μM, KIT(V559D,V654A); assay type: binding; conditions: 1000 nM; Entrez KIT; read-out: Percent Control
T14 construct: purchased Eurofins DiscoverX KINOMEscan
From the text: as §1

MAP3K1 = target: T15, MAP3K1 (Homo sapiens, UniProt Q13233); experiment: KINOMEscan 1 μM, MAP3K1; assay type: binding; conditions: 1000 nM; Entrez MAP3K1; read-out: Percent Control
T15 construct: purchased Eurofins DiscoverX KINOMEscan
From the text: as §1

PLK3 = target: T16, PLK3 (Homo sapiens, UniProt Q9H4B4); experiment: DiscoverX KINOMEscan binding assay at 1 μM, PLK3; conditions: Compound Concentration 1000 nM, read-out: Percent Control
T16 construct: purchased Eurofins DiscoverX KINOMEscan
From the text: as §1

TGFBR1 = target: T17, TGFBR1 (Homo sapiens, UniProt P36897); experiment: DiscoverX KINOMEscan binding assay at 1 μM, TGFBR1; conditions: Compound Concentration 1000 nM, read-out: Percent Control
T17 construct: purchased Eurofins DiscoverX KINOMEscan
From the text: as §1

VRK2 = target: T18, VRK2 (Homo sapiens, UniProt Q86Y07); experiment: DiscoverX KINOMEscan binding assay at 1 μM, VRK2; conditions: Compound Concentration 1000 nM, read-out: Percent Control
T18 construct: purchased Eurofins DiscoverX KINOMEscan
From the text: as §1

LRRK2 = target: T19, LRRK2 (Homo sapiens, UniProt Q5S007); experiment: KINOMEscan at 1 μM, LRRK2; assay type: binding; conditions: 1000 nM, read-out: Percent Control
T19 construct: purchased Eurofins DiscoverX KINOMEscan
From the text: (§2) Supplement cells-12-00287-s001.zip/File S2. KinomeScan data for the CAMKK2 probe and negative control.xlsx, sheet "SGC-CAMKK2-1N" | column: Percent Control

TBK1 = target: T20, TBK1 (Homo sapiens, UniProt Q9UHD2); experiment: KINOMEscan at 1 μM, TBK1; assay type: binding; conditions: 1000 nM, read-out: Percent Control
T20 construct: purchased Eurofins DiscoverX KINOMEscan
From the text: as §2

SBK1 = target: T21, SBK1 (Homo sapiens, UniProt Q52WX2); experiment: KINOMEscan at 1 μM, SBK1; assay type: binding; conditions: 1000 nM, read-out: Percent Control
T21 construct: purchased Eurofins DiscoverX KINOMEscan
From the text: as §2

MAP3K2 = target: T22, MAP3K2 (Homo sapiens, UniProt Q9Y2U5); experiment: KINOMEscan at 1 μM, MAP3K2; assay type: binding; conditions: 1000 nM, read-out: Percent Control
T22 construct: purchased Eurofins DiscoverX KINOMEscan
From the text: as §2

CAMK1G = target: T23, CAMK1G (Homo sapiens, UniProt Q96NX5); experiment: KINOMEscan at 1 μM, CAMK1G; assay type: binding; conditions: 1000 nM, read-out: Percent Control
T23 construct: purchased Eurofins DiscoverX KINOMEscan
From the text: as §2

AURKC = target: T24, AURKC (Homo sapiens, UniProt Q9UQB9); experiment: KINOMEscan at 1 μM, AURKC; assay type: binding; conditions: 1000 nM, read-out: Percent Control
T24 construct: purchased Eurofins DiscoverX KINOMEscan
From the text: as §2

LRRK2(G2019S) = target: T25, LRRK2(G2019S) (Homo sapiens, UniProt Q5S007, G2019S); experiment: KINOMEscan at 1 μM, LRRK2(G2019S); assay type: binding; conditions: 1000 nM, read-out: Percent Control
T25 construct: purchased Eurofins DiscoverX KINOMEscan
From the text: as §2

PLK2 = target: T26, PLK2 (Homo sapiens, UniProt Q9NYY3); experiment: KINOMEscan at 1 μM, PLK2; assay type: binding; conditions: 1000 nM, read-out: Percent Control
T26 construct: purchased Eurofins DiscoverX KINOMEscan
From the text: as §2

TLK1 = target: T27, TLK1 (Homo sapiens, UniProt Q9UKI8); experiment: KINOMEscan at 1 μM, TLK1; assay type: binding; conditions: 1000 nM, read-out: Percent Control
T27 construct: purchased Eurofins DiscoverX KINOMEscan
From the text: as §2

TEC = target: T28, TEC (Homo sapiens, UniProt P42680); experiment: KINOMEscan at 1 μM, TEC; assay type: binding; conditions: 1000 nM, read-out: Percent Control
T28 construct: purchased Eurofins DiscoverX KINOMEscan
From the text: as §2

[4] = target: T29, RSK1(Kin.Dom.1-N-terminal) (Homo sapiens, UniProt Q15418); experiment: KINOMEscan at 1 μM, RSK1(Kin.Dom.1-N-terminal); assay type: binding; conditions: 1000 nM, read-out: Percent Control
T29 construct: RSK1(Kin.Dom.1-N-terminal); purchased Eurofins DiscoverX KINOMEscan
From the text: as §2

BRSK2 = target: T30, BRSK2 (Homo sapiens, UniProt Q8IWQ3); experiment: KINOMEscan at 1 μM, BRSK2; assay type: binding; conditions: 1000 nM, read-out: Percent Control
T30 construct: purchased Eurofins DiscoverX KINOMEscan
From the text: as §2

LYN = target: T31, LYN (Homo sapiens, UniProt P07948); experiment: KINOMEscan binding assay at 1 μM, LYN; conditions: Compound Concentration 1000 nM; read-out: Percent Control
T31 construct: purchased Eurofins DiscoverX KINOMEscan
From the text: as §2

p38-beta = target: T32, p38-beta (Homo sapiens, UniProt Q15759); experiment: KINOMEscan binding assay at 1 μM, p38-beta; conditions: Compound Concentration 1000 nM; read-out: Percent Control
T32 construct: purchased Eurofins DiscoverX KINOMEscan
From the text: as §2

[5] = target: T33, RSK4(Kin.Dom.2-C-terminal) (Homo sapiens, UniProt Q9UK32); experiment: KINOMEscan binding assay at 1 μM, RSK4(Kin.Dom.2-C-terminal); conditions: Compound Concentration 1000 nM; read-out: Percent Control
T33 construct: RSK4(Kin.Dom.2-C-terminal); purchased Eurofins DiscoverX KINOMEscan
From the text: as §2

T5 sequence (Q07002 whole entry): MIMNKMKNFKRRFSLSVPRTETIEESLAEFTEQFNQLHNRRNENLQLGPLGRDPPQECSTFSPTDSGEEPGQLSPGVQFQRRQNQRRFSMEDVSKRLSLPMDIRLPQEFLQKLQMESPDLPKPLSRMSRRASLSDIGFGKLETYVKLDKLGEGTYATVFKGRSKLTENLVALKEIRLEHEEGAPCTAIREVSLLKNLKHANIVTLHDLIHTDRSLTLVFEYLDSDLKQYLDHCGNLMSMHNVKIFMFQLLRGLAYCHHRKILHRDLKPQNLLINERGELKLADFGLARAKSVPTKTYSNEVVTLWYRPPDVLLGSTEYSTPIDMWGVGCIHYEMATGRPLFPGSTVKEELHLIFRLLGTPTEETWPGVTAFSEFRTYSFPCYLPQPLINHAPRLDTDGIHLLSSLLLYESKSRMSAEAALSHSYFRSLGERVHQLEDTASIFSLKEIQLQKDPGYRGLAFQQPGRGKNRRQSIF
T10 sequence (O43293 whole entry): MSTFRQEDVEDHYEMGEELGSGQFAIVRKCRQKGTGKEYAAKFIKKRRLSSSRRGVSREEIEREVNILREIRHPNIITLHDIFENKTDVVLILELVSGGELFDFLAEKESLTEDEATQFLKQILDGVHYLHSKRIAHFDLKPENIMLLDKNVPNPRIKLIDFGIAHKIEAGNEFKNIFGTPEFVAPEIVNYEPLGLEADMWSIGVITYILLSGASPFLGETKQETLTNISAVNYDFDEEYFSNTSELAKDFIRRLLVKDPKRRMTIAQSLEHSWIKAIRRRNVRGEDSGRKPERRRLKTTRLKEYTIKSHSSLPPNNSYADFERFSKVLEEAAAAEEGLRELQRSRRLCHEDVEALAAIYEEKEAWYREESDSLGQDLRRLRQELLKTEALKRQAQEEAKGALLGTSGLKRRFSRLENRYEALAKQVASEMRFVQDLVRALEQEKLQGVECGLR
T12 sequence (Q08881 whole entry): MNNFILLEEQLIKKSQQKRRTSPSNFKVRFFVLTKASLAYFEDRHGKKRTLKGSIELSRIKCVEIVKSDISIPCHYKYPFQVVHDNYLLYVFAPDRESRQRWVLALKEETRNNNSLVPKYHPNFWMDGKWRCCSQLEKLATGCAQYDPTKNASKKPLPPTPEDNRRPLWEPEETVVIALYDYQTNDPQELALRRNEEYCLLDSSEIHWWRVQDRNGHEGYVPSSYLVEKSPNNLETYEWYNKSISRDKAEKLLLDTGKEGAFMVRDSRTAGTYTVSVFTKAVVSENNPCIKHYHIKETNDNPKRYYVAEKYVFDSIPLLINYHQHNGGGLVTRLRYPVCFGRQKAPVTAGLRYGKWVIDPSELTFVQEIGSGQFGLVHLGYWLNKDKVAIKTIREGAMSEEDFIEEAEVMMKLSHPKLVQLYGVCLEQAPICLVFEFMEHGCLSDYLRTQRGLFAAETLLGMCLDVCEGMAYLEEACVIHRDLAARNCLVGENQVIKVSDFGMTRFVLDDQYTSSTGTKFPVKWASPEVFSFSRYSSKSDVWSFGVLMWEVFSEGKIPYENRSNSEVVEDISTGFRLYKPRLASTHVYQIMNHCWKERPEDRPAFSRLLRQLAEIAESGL
T28 sequence (P42680 whole entry): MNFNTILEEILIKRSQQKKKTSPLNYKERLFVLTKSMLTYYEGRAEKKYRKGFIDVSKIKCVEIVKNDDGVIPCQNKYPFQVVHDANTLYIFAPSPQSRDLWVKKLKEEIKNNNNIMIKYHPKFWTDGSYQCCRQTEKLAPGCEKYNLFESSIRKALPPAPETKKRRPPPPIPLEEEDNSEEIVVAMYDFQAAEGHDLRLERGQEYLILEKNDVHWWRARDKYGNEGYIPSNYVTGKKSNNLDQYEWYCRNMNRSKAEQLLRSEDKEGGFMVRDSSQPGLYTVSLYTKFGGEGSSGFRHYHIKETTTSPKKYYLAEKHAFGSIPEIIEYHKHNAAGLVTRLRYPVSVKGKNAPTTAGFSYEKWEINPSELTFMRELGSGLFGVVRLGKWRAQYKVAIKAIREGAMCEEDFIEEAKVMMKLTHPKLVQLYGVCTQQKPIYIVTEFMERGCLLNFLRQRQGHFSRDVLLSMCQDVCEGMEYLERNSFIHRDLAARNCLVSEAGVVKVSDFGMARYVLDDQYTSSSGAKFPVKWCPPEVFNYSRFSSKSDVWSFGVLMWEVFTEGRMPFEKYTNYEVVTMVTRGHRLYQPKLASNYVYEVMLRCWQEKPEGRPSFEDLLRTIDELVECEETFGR
T33 sequence (Q9UK32 401-745 limits assumed): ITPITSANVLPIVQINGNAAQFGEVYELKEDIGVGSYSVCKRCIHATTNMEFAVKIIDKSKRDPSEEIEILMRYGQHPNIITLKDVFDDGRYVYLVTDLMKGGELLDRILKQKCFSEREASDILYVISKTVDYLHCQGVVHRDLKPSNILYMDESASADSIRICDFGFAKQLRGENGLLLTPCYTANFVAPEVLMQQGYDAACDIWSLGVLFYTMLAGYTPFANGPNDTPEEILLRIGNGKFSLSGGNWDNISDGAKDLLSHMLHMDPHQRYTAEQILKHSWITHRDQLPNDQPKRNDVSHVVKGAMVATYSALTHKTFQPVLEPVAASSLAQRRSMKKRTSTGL
T16 sequence (Q9H4B4 whole entry): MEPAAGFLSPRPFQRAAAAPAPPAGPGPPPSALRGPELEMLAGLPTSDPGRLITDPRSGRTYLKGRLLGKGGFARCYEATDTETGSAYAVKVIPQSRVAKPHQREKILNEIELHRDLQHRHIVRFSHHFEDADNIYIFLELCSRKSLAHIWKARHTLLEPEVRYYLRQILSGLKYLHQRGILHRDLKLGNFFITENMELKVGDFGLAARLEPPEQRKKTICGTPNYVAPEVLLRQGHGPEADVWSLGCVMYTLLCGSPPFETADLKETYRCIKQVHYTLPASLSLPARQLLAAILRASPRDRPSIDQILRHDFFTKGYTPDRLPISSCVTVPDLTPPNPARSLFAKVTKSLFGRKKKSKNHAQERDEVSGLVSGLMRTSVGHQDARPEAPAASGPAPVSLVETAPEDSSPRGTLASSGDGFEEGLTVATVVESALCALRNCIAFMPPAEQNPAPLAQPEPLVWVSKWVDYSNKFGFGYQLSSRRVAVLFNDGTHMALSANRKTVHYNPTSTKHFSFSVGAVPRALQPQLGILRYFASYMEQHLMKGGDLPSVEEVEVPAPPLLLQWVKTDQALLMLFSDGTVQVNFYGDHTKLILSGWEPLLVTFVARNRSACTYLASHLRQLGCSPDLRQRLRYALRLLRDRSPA
T26 sequence (Q9NYY3 whole entry): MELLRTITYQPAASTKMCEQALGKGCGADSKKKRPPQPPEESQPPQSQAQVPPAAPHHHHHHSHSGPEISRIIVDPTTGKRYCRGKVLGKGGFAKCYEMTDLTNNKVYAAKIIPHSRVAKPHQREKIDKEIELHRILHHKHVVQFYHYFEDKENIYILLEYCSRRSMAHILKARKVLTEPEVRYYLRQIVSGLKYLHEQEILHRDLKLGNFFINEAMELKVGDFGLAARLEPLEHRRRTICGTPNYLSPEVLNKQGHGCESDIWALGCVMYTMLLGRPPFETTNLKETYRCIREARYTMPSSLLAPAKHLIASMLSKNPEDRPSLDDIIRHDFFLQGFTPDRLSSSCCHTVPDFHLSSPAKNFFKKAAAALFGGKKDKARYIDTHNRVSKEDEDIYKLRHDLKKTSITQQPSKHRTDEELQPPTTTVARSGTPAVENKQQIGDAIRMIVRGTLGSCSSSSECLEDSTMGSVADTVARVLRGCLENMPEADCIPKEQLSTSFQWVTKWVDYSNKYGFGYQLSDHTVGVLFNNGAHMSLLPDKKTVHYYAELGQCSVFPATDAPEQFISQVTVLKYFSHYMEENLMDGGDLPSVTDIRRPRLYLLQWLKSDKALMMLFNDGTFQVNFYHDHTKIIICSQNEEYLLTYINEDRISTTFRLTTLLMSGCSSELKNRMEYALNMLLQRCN
T2 sequence (P36888 27-993): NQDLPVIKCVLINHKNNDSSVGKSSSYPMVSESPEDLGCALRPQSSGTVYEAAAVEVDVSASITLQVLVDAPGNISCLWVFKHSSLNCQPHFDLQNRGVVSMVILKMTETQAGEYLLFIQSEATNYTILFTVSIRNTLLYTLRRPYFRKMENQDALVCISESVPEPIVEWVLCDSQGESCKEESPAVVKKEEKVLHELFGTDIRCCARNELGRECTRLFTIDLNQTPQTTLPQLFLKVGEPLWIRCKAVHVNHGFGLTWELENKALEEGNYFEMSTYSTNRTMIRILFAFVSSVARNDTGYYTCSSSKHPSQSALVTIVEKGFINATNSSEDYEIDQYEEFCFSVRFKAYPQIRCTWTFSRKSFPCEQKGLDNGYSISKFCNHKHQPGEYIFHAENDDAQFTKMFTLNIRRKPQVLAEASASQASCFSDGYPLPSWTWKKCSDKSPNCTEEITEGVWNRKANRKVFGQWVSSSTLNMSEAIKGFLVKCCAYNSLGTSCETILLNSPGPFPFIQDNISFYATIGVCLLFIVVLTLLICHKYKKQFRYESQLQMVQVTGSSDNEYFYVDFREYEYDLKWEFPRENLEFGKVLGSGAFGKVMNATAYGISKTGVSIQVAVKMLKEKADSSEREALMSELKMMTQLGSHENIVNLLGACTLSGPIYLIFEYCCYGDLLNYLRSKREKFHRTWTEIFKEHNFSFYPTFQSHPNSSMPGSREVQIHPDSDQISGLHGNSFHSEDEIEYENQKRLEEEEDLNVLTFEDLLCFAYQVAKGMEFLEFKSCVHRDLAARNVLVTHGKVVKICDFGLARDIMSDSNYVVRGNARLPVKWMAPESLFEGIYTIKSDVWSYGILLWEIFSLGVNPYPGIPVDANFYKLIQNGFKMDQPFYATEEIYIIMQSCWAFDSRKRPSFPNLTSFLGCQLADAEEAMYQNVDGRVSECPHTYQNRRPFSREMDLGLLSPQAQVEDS

Cc1cccc(-c2cnc3occ(-c4ccc(C(=O)O)c(C5CCCC5)c4)c3c2)c1 [SGC-CAMKK2-1 (YL-36)]
remaining binding at 1 µM [1]: 59%
remaining binding at 1 µM (FLT3): 80%
remaining binding at 1 µM (CSNK1A1L): 88%
remaining binding at 1 µM (ABL1-nonphosphorylated): 95%
remaining binding at 1 µM (PCTK3): 99%
remaining binding at 1 µM [2]: 100%
remaining binding at 1 µM (ARK5): 100%
remaining binding at 1 µM (CDK4): 100%
remaining binding at 1 µM (CDK4-cyclinD1): 100%
remaining binding at 1 µM (DAPK3): 100%
remaining binding at 1 µM (DYRK1A): 100%
remaining binding at 1 µM (ITK): 100%
remaining binding at 1 µM [3]: 100%
remaining binding at 1 µM (KIT(V559D,V654A)): 100%
remaining binding at 1 µM (MAP3K1): 100%
remaining binding at 1 µM (PLK3): 100%
remaining binding at 1 µM (TGFBR1): 100%
remaining binding at 1 µM (VRK2): 100%

O=C(O)c1ccc(-c2coc3ncc(-c4ccccc4)cc23)cc1Cl [SGC-CAMKK2-1N (UNC-YL-83)]
remaining binding at 1 µM (LRRK2): 47%
remaining binding at 1 µM (TBK1): 64%
remaining binding at 1 µM (SBK1): 67%
remaining binding at 1 µM (MAP3K2): 83%
remaining binding at 1 µM (CAMK1G): 86%
remaining binding at 1 µM (AURKC): 90%
remaining binding at 1 µM (LRRK2(G2019S)): 90%
remaining binding at 1 µM (PLK2): 91%
remaining binding at 1 µM (TLK1): 92%
remaining binding at 1 µM (TEC): 96%
remaining binding at 1 µM [4]: 99%
remaining binding at 1 µM (BRSK2): 100%
remaining binding at 1 µM (LYN): 100%
remaining binding at 1 µM (p38-beta): 100%
remaining binding at 1 µM [5]: 100%
